# Experimental data reported in patent USRE48097E1, “Cephem compounds, their production and use” (priority 2015, dated 2020).
# Like-named read-outs stand apart in the source and are kept apart here.
# Tests used:
# Format in all cases: cell-based
# [1] = tested on: S. pneumoniae 2406; experiment: MIC against S. pneumoniae 2406; conditions: Table 2, S. pneumoniae 2406, Pen S
# Text: (§1) Without limitation, the present cephem compounds alone, or in combination with one or more β-lactamase inhibitors, may provide improved antibacterial efficacy, particularly in antibiotic-resistant bacterial strains. It is believed that the present compounds may be structurally different from known compounds and, as a result, may be more basic in nature. It is an advantage that the present compounds may extend the spectrum of effective bacterial compounds, particularly against previously-resistant bacteria (e.g. ESKAPE organisms), and/or gram negative bacteria, without significant side effects. In a preferred embodiment, the present cephem compound may comprise reference compound ceftazidime, which may be used alone, or in combination with one or more β-lactamase inhibitors, such as NXL-104. As shown, the foregoing composition was tested for minimum inhibitory concentration (MIC, μg/mL) against bacteria listed in Tables 2-3.
# [2] = tested on: E. coli 102; experiment: MIC against E. coli 102; conditions: Table 2, E. coli 102, TEM-1
# Text: as §1
# [3] = tested on: E. coli 4102; experiment: MIC against E. coli 4102; conditions: Table 2, E. coli 4102, CTX-M-14
# Text: as §1
# [4] = tested on: P. aeruginosa 2686; experiment: MIC against P. aeruginosa 2686; conditions: Table 3, P. aeruginosa 2686, KPC-2
# Experimental: (§2) As shown, the foregoing composition was tested for minimum inhibitory concentration (MIC, μg/mL) against bacteria listed in Tables 2-3.
# [5] = tested on: E. cloacae 2689; experiment: MIC against E. cloacae 2689; conditions: Table 3, E. cloacae 2689, KPC-2
# Experimental: as §2
# [6] = tested on: E. coli 4101; experiment: MIC against E. coli 4101; conditions: Table 2, E. coli 4101, CTX-M-14, TEM-1
# Text: as §1
# [7] = tested on: S. pneumoniae 2404; experiment: MIC against S. pneumoniae 2404; conditions: Table 2, S. pneumoniae 2404, Pen S
# Text: as §1
# [8] = tested on: K. baumanii 4094; experiment: MIC against K. baumanii 4094; conditions: Table 2, K. baumanii 4094, OXA-51
# Text: as §1
# [9] = tested on: E. cloacae 2044; experiment: MIC against E. cloacae 2044; conditions: Table 2, E. cloacae 2044, Caz S, IMP S
# Text: as §1
# [10] = tested on: S. pneumoniae 2405; experiment: MIC against S. pneumoniae 2405; conditions: Table 2, S. pneumoniae 2405, Pen S
# Text: as §1
# [11] = tested on: K. pneumoniae 2697; experiment: MIC against K. pneumoniae 2697; conditions: Table 2, K. pneumoniae 2697, IMP-4
# Text: as §1
# [12] = tested on: K. baumanii 4091; experiment: MIC against K. baumanii 4091; conditions: Table 2, K. baumanii 4091, OXA-23
# Text: as §1
# [13] = tested on: K. pneumoniae 4107; experiment: MIC against K. pneumoniae 4107; conditions: K. pneumoniae 4107, KPC-2, TEM-1, SHV-11
# Experimental: as §2
# [14] = tested on: S. pneumoniae ATCC 700673; experiment: MIC against S. pneumoniae ATCC 700673; conditions: Table 2, S. pneumoniae ATCC 700673, Pen R
# Text: as §1
# [15] = tested on: C. freundii 579; experiment: MIC against C. freundii 579; conditions: Table 2, C. freundii 579, Caz R, IMP S
# Text: as §1
# [16] = tested on: S. pneumoniae 2392; experiment: MIC against S. pneumoniae 2392; conditions: Table 2, S. pneumoniae 2392, Pen R
# Text: as §1
# [17] = tested on: S. aureus 3144; experiment: MIC against S. aureus 3144; conditions: Table 2, S. aureus 3144, MSSA
# Text: as §1
# [18] = tested on: E. coli 4080; experiment: MIC against E. coli 4080; conditions: Table 2, E. coli 4080, TEM-10
# Text: as §1
# [19] = tested on: E. coli 4103; experiment: MIC against E. coli 4103; conditions: Table 3, E. coli 4103, KPC-2, TEM-1, CMY-type
# Experimental: as §2
# [20] = tested on: K. pneumoniae 4104; experiment: MIC against K. pneumoniae 4104; conditions: K. pneumoniae 4104, KPC-3, TEM-1
# Experimental: as §2
# [21] = tested on: E. cloacae 2709; experiment: MIC against E. cloacae 2709; conditions: Table 3, E. cloacae 2709, KPC-3, VIM-1
# Experimental: as §2
# [22] = tested on: K. pneumoniae 2689; experiment: MIC against K. pneumoniae 2689; conditions: K. pneumoniae 2689, KPC-2
# Experimental: as §2
# [23] = tested on: K. pneumoniae 2713; experiment: MIC against K. pneumoniae 2713; conditions: Table 3, K. pneumoniae 2713, KPC-3, VIM-1
# Experimental: as §2
# [24] = Streptococcus pneumoniae, alone, read-out: MIC
# [25] = Escherichia coli, alone, read-out: MIC
# [26] = Enterobacter cloacae, alone, read-out: MIC
# [27] = Klebsiella pneumoniae, alone, read-out: MIC
# [28] = Table 2, in combination with NXL-104
# [29] = Table 3, in combination with NXL-104
smiles,measurement,setting,value
"CC(C)(O/N=C(\C(=O)N[C@@H]1C(=O)N2C(C(=O)[O-])=C(C[n+]3ccc4c(ccn4Cc4cc(C(=N)N)cs4)c3)CS[C@H]12)c1csc(N)n1)C(=O)O [Example 5, (6R,7R)-7-{[(2Z)-2-(2-Amino-1,3-thiazol-4-yl)-2-{[(2-carboxypropan-2-yl)oxy]imino}acetyl]amino}-3-({1-[(4-carbamimidoylthiophen-2-yl)methyl]-1H-pyrrolo[3,2-c]pyridin-5-ium-5-yl}methyl)-8-oxo-5-thia-1-azabicyclo[4.2.0]oct-2-ene-2-carboxylate]",MIC,[1]; [24],≤ 0.06 µg/mL
same,MIC,[1]; in combination with NXL-104,≤0.06 µg/mL
same,MIC,[2]; [25],≤ 0.06 µg/mL
same,MIC,[2]; in combination with NXL-104,≤0.06 µg/mL
same,MIC,[3]; [25],1 µg/mL
same,MIC,[3]; in combination with NXL-104,≤0.06 µg/mL
same,MIC,"[4]; Pseudomonas aeruginosa, alone, read-out: MIC",32 µg/mL
same,MIC,[4]; in combination with NXL-104,8 µg/mL
same,MIC,[5]; [26],16 µg/mL
same,MIC,[5]; in combination with NXL-104,0.5 µg/mL
same,MIC,[6]; [25],0.5 µg/mL
same,MIC,[6]; in combination with NXL-104,0.12 µg/mL
same,MIC,[7]; [24],≤ 0.06 µg/mL
same,MIC,[7]; in combination with NXL-104,≤0.06 µg/mL
same,MIC,"[8]; alone, read-out: MIC",16 µg/mL
same,MIC,[8]; in combination with NXL-104,4.00 µg/mL
same,MIC,[9]; [26],0.5 µg/mL
same,MIC,[9]; in combination with NXL-104,0.12 µg/mL
same,MIC,[10]; [24],≤ 0.06 µg/mL
same,MIC,[10]; in combination with NXL-104,≤0.06 µg/mL
same,MIC,[11]; [27],16 µg/mL
same,MIC,[11]; in combination with NXL-104,0.50 µg/mL
same,MIC,"[12]; alone, read-out: MIC",8 µg/mL
same,MIC,[12]; in combination with NXL-104,2.00 µg/mL
same,MIC,"[13]; Klebsiella pneumoniae, 4107, Table 2, alone, read-out: MIC",32 µg/mL
same,MIC,"[13]; Klebsiella pneumoniae, 4107, Table 3, alone, read-out: MIC",16 µg/mL
same,MIC,[13]; [28],2.00 µg/mL
same,MIC,[13]; [29],1 µg/mL
same,MIC,"[14]; Streptococcus pneumoniae, ATCC700673, alone, read-out: MIC",2 µg/mL
same,MIC,[14]; in combination with NXL-104,2.00 µg/mL
same,MIC,"[15]; Citrobacter freundii, alone, read-out: MIC",4 µg/mL
same,MIC,[15]; in combination with NXL-104,0.25 µg/mL
same,MIC,[16]; [24],2 µg/mL
same,MIC,[16]; in combination with NXL-104,1.00 µg/mL
same,MIC,"[17]; Staphylococcus aureus, alone, read-out: MIC",4 µg/mL
same,MIC,[17]; in combination with NXL-104,4.00 µg/mL
same,MIC,[18]; [25],16 µg/mL
same,MIC,[18]; in combination with NXL-104,0.50 µg/mL
same,MIC,[19]; [25],> 32 µg/mL
same,MIC,[19]; in combination with NXL-104,4 µg/mL
same,MIC,"[20]; Klebsiella pneumoniae, 4104, Table 2, alone, read-out: MIC",32 µg/mL
same,MIC,"[20]; Klebsiella pneumoniae, 4104, Table 3, alone, read-out: MIC",16 µg/mL
same,MIC,[20]; [28],2.00 µg/mL
same,MIC,[20]; [29],0.5 µg/mL
same,MIC,[21]; [26],32 µg/mL
same,MIC,[21]; in combination with NXL-104,4 µg/mL
same,MIC,"[22]; Klebsiella pneumoniae, 2689, Table 2, alone, read-out: MIC",8 µg/mL
same,MIC,"[22]; Klebsiella pneumoniae, 2689, Table 3, alone, read-out: MIC",8 µg/mL
same,MIC,[22]; [28],1.00 µg/mL
same,MIC,[22]; [29],1 µg/mL
same,MIC,[23]; [27],> 32 µg/mL
same,MIC,[23]; in combination with NXL-104,2 µg/mL
